Test results reported in patent US9012412B2, “Dual SGLT1/SGLT2 inhibitors” (Janssen Pharmaceutica NV, priority 2013, dated 2015).

Assays:
[1] = target: T1, human SGLT1 (Homo sapiens, UniProt P13866); assay: Sodium-dependent 14C-methyl-α-D-glucopyranoside uptake in CHO-K1 cells stably expressing human SGLT1; format: cell-based; details: for inhibition at 3 µM: compound at 3 μM; for IC50: 14C-methyl-α-D-glucopyranoside uptake; for inhibition at 0.1 µM: compound at 0.1 μM
T1 construct: expressed in transfected cells
T1 sequence (P13866 1-664): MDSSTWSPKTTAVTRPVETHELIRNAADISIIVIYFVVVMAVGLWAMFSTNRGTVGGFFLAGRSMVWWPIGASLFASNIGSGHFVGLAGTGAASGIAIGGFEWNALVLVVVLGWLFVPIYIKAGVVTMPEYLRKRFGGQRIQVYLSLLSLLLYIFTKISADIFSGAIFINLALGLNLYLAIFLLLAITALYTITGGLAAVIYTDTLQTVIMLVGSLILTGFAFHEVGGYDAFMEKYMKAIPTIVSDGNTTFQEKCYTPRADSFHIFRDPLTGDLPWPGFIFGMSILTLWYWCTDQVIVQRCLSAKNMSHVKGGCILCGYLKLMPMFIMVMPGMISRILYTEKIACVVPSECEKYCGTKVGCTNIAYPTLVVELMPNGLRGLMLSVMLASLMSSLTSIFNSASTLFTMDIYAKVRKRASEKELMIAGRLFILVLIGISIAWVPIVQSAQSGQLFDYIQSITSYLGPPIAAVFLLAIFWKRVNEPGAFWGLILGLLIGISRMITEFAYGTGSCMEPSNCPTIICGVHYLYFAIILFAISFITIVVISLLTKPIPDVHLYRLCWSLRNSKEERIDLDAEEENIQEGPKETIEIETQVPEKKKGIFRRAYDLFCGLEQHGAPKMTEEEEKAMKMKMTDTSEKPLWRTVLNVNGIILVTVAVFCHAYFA
Procedure: (§1) SGLT1 and SGLT2 were cloned in form of cDNA from human small intestine (Genbank M24847), and from human kidney (Genbank M95549), respectively. Subsequently, each full cDNA was subcloned into pcDNA with each construct's integrity verified through follow-on sequencing. To generate CHO-K1 cells that stably express human SGLT1 or human SGLT2 CHO-K1 cells were transfected using DMRIE-C reagent (Life Technologies, Gaithersburg, Md.). Transfected cells were then selected in the presence of 500 μg/ml of the antibiotic G418 (Gibco-BRL, Grand Island, N.Y.). Individual clones were then characterized using the following cell-based assay for sodium-dependent glucose transport.
(§2) First, cell lines stably expressing human SGLT1 or SGLT2 were seeded at a density of 65,000 cells per well per 200 μl cell culture medium with 10 mM of NaButyrate (Aldrich Catalog No. 30341-0) in a 96-well flat bottom plate (COSTAR, Catalog No. 3903). For human SGLT1 or SGLT2 expressing CHO-K1 cells the culture medium comprised Ham's F-12 (Invitrogen Catalog No. 31765), Fetal Bovine Serum (Invitrogen Catalog No. 16000), G418 (Geneticin, Cellgro Catalog No. 30234-CI), Phlorizidin (Sigma Catalog No. P3449), DPBS (Cellgro Catalog No. 21030-CV), ^14C-methyl-α-D-glucopyranoside (Amersham Catalog No. CFB 76), and Methyl-α-D-glucopyranoside (Sigma Catalog No. M-9376).
(§3) The cells were allowed to incubate for 24 hours. Subsequently, the medium was aspirated from the plates and the cells were washed one time with 150 μl assay buffer and incubate 15 min with another 150 μl assay buffer which comprised 50 mM HEPES pH 7.4, 20 mM Tris Base, 5 mM KCl, 1 mM MgCl2, 1 mM CaCl2, and 137 mM NaCl. After removing the wash buffer, 40 μl assay buffer and 10 μl compound solution was added to each well, which was again allowed to incubate for 10 min.
(§4) Following the 10 min incubation, 10 μl of serial diluted Methyl-α-D-glucopyranoside (Sigma Catalog No. M-9376) containing 0.07 μCi ^14C-methyl-α-D-glucopyranoside (Amersham Catalog No. CFB 76) was added to the appropriate well and allowed to incubate for another 2 hours. ^14C-methyl-α-D-glucopyranoside (Sigma Catalog No. M-9376, St. Louis, Mo.) is a non-metabolizable glucose analog specific for sodium-dependent glucose transporters as previously described by H. Peng and J. E. Lever in “Post-transcriptional regulation of Na+/glucose cotransporter (SGLT1) gene expression in LLC-PK1 cells,” J. Biol. Chem. 270, 20536-42 (1995).
(§5) Next, the plates were twice washed with 150 μl of ice-cold DPBS (Cellgro Catalog No. 21030) that was then completely removed from the plates before adding 50 μl of MicroScint™-20 (Packard Catalog No. 6013621) to each well for a 20 min or longer incubation time.
(§6) Sodium-dependent ^14C-methyl-α-D-glucopyranoside uptake was quantified by measuring radioactivity. Plates were counted in a TopCount (Packard, Meriden, Conn.). Results are reported as the %-inhibition or IC50 value from a representative experiment. Variability for the functional assay was typically within 20%.

[2] = target: T2, human SGLT2 (Homo sapiens, UniProt P31639); assay: Sodium-dependent 14C-methyl-α-D-glucopyranoside uptake in CHO-K1 cells stably expressing human SGLT2; format: cell-based; details: for inhibition at 3 µM: compound at 3 μM; for IC50: 14C-methyl-α-D-glucopyranoside uptake; for inhibition at 0.1 µM: compound at 0.1 μM; for inhibition at 0.3 µM: compound at 0.3 μM
T2 construct: expressed in transfected cells
T2 sequence (P31639 1-672): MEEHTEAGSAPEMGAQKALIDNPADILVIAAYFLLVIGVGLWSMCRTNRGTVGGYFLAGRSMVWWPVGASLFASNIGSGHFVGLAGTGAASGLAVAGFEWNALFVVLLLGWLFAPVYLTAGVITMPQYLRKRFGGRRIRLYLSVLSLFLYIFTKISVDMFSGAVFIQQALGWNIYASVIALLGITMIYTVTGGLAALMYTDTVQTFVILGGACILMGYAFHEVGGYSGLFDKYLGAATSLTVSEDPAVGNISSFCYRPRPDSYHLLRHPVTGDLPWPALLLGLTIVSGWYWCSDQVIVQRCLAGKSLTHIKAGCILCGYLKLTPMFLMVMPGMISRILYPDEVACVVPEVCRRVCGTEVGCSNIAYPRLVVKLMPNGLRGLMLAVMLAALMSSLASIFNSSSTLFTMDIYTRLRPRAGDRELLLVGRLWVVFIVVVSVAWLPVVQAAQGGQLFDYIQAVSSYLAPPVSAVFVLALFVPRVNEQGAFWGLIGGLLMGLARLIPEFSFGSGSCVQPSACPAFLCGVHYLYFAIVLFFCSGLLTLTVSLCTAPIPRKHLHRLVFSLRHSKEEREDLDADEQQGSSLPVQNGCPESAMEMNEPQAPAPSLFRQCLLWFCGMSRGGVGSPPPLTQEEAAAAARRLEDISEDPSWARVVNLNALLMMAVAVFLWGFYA
Procedure: as §1, §2, §3, §4, §5, §6

| SMILES | inhibition at 3 µM [1] [%] | IC50 [1] [nM] | IC50 [2] [nM] | other results |
| --- | --- | --- | --- | --- |
| C=C(c1cc2ccccc2s1)c1cc([C@@H]2O[C@H](CO)C[C@H](O)[C@H]2O)c(O)cc1OC [Cpd 7, (2S,3R,4S,6S)-2-(5-(1-(benzo[b]thiophen-2-yl)vinyl)-2-hydroxy-4-methoxyphenyl)-6-(hydroxymethyl)tetrahydro-2H-pyran-3,4-diol] | 43 | – | – | inhibition at 3 µM [2]: 6% |
| Cc1cc(O)c([C@@H]2O[C@H](CO)C[C@H](O)[C@H]2O)cc1Cc1cc2cc(Cl)ccc2s1 [Cpd 20, (2S,3R,4S,6S)-2-(5-((5-chlorobenzo[b]thiophen-2-yl)methyl)-2-hydroxy-4-methylphenyl)-6-(hydroxymethyl)tetrahydro-2H-pyran-3,4-diol] | – | – | – | inhibition at 0.1 µM [1]: 20%; inhibition at 0.1 µM [2]: 84% |
| Cc1cc(O)c([C@@H]2O[C@H](CO)C[C@H](O)[C@H]2O)cc1Cc1cc2cc(F)ccc2s1 [Cpd 19, (2S,3R,4S,6S)-2-(5-((5-fluorobenzo[b]thiophen-2-yl)methyl)-2-hydroxy-4-methylphenyl)-6-(hydroxymethyl)tetrahydro-2H-pyran-3,4-diol] | – | 220 | 41 | – |
| O=C(c1cc2ccccc2s1)c1cc([C@@H]2O[C@H](CO)C[C@H](O)[C@H]2O)c(O)cc1O [Cpd 18, benzo[b]thiophen-2-yl(5-((2S,3R,4S,6S)-3,4-dihydroxy-6-(hydroxymethyl)tetrahydro-2H-pyran-2-yl)-2,4-dihydroxyphenyl)methanone] | 19 | – | – | inhibition at 0.3 µM [2]: 13% |
| Cc1cc(O)c([C@@H]2O[C@H](CO)C[C@H](O)[C@H]2O)cc1C(C)(C)c1cc2ccccc2s1 [Cpd 15, (2S,3R,4S,6S)-2-(5-(2-(benzo[b]thiophen-2-yl)propan-2-yl)-2-hydroxy-4-methylphenyl)-6-(hydroxymethyl)tetrahydro-2H-pyran-3,4-diol] | 52 | – | – | inhibition at 0.3 µM [2]: 25% |
| Cc1cc(O)c([C@@H]2O[C@H](CO)C[C@H](O)[C@H]2O)cc1C(=O)c1cc2ccccc2s1 [Cpd 6, benzo[b]thiophen-2-yl(5-((2S,3R,4S,6S)-3,4-dihydroxy-6-(hydroxymethyl)-tetrahydro-2H-pyran-2-yl)-4-hydroxy-2-methylphenyl)methanone] | 0 | – | – | inhibition at 3 µM [2]: 0% |
| Cc1cc(O)c([C@@H]2O[C@H](CO)C[C@H](O)[C@H]2O)cc1Cc1cc2ccccc2s1 [Cpd 1, (2S,3R,4S,6S)-2-(5-(benzo[b]thiophen-2-ylmethyl)-2-hydroxy-4-methylphenyl)-6-(hydroxymethyl)tetrahydro-2H-pyran-3,4-diol] | – | 117 | 16 | – |
| COc1c(Cc2cc3ccccc3s2)cc([C@@H]2O[C@H](CO)C[C@H](O)[C@H]2O)c(O)c1F [Cpd 21, (2S,3R,4S,6S)-2-(5-(benzo[b]thiophen-2-ylmethyl)-3-fluoro-2-hydroxy-4-methoxyphenyl)-6-(hydroxymethyl)tetrahydro-2H-pyran-3,4-diol] | – | – | – | inhibition at 0.1 µM [1]: 26%; inhibition at 0.1 µM [2]: 78% |
| COc1cc(O)c([C@@H]2O[C@H](CO)C[C@H](O)[C@H]2O)cc1C1(c2cc3ccccc3s2)CC1 [Cpd 9, (2S,3R,4S,6S)-2-(5-(1-(benzo[b]thiophen-2-yl)cyclopropyl)-2-hydroxy-4-methoxyphenyl)-6-(hydroxymethyl)tetrahydro-2H-pyran-3,4-diol] | 49 | – | – | inhibition at 3 µM [2]: 57% |
| COc1cc(O)c([C@@H]2O[C@H](CO)C[C@H](O)[C@H]2O)cc1Cc1cc2ccccc2s1 [Cpd 2, (2S,3R,4S,6S)-2-(5-(benzo[b]thiophen-2-ylmethyl)-2-hydroxy-4-methoxyphenyl)-6-(hydroxymethyl)tetrahydro-2H-pyran-3,4-diol] | – | 155 | 114 | – |
| Cc1cc(Br)c([C@@H]2O[C@H](CO)C[C@H](O)[C@H]2O)cc1Cc1cc2ccccc2s1 [Cpd 25, (2S,3R,4S,6S)-2-(5-(benzo[b]thiophen-2-ylmethyl)-2-bromo-4-methylphenyl)-6-(hydroxymethyl)tetrahydro-2H-pyran-3,4-diol] | – | – | – | inhibition at 0.1 µM [1]: 26%; inhibition at 0.1 µM [2]: 47% |
| COc1cc(O)c([C@@H]2O[C@H](CO)C[C@H](O)[C@H]2O)cc1C(C)(C)c1cc2ccccc2s1 [Cpd 14, (2S,3R,4S,6S)-2-(5-(2-(benzo[b]thiophen-2-yl)propan-2-yl)-2-hydroxy-4-methoxyphenyl)-6-(hydroxymethyl)tetrahydro-2H-pyran-3,4-diol] | – | – | – | inhibition at 0.3 µM ([1]; compound at 0.3 μM): 46%; inhibition at 0.3 µM [2]: 54% |
| OC[C@@H]1C[C@H](O)[C@@H](O)[C@H](c2cc(Cc3cc4ccccc4s3)c(C3CC3)cc2O)O1 [Cpd 12, (2S,3R,4S,6S)-2-(5-(benzo[b]thiophen-2-ylmethyl)-4-cyclopropyl-2-hydroxyphenyl)-6-(hydroxymethyl)tetrahydro-2H-pyran-3,4-diol] | – | 99 | 683 | – |

Continued, in another order:

| inhibition at 3 µM [1] [%] | IC50 [1] [nM] | IC50 [2] [nM] | SMILES | other results |
| --- | --- | --- | --- | --- |
| – | 97 | 4 | CCc1ccc(Cc2cc([C@@H]3O[C@H](CO)C[C@H](O)[C@H]3O)c(O)cc2C)s1 [Cpd 32, (2S,3R,4S,6S)-2-(5-((5-ethylthiophen-2-yl)methyl)-2-hydroxy-4-methylphenyl)-6-(hydroxymethyl)tetrahydro-2H-pyran-3,4-diol] | – |
| – | 272 | – | Cc1cc(O)c([C@@H]2O[C@H](CO)C[C@H](O)[C@H]2O)cc1Cc1ccc(-c2ccc(F)cc2)s1 [Cpd 31, (2S,3R,4S,6S)-2-(5-((5-(4-fluorophenyl)thiophen-2-yl)methyl)-2-hydroxy-4-methylphenyl)-6-(hydroxymethyl)tetrahydro-2H-pyran-3,4-diol] | inhibition at 0.1 µM [2]: 58% |
| – | 734 | 10 | Cc1cc(-c2cc[nH]n2)c([C@@H]2O[C@H](CO)C[C@H](O)[C@H]2O)cc1Cc1cc2ccccc2s1 [Cpd 27, (2S,3R,4S,6S)-2-(5-(benzo[b]thiophen-2-ylmethyl)-4-methyl-2-(1H-pyrazol-3-yl)phenyl)-6-(hydroxymethyl)tetrahydro-2H-pyran-3,4-diol] | – |
